From patent US10829446B2, “Aryl sulfonohydrazides” (MONASH UNIVERSITY, priority 2015, dated 2020) come the findings set out here.

Assay [1] addresses MOZ enzyme (Homo sapiens (Human), UniProt Q92794). Put plainly: Moz biochemical assay (AlphaScreen histone H4 peptide acetylation).
Assay [2] has as its system Cdc6 mRNA. The experiment in a line: Bioassay 2: RT-qPCR of MOZ target genes in mouse embryonic fibroblasts. Format: cell-based. Particulars: 5 μM. Here is the method:
Mouse embryonic fibroblasts are isolated from wild type or Moz heterozygous animals and cultured at 3% oxygen/5% carbon dioxide/92% nitrogen. Cells are plated at a density of 1,020 cells/cm^2 or 2,040 cells/cm^2 or 10,204 cells/cm^2. A reference value for MOZ inhibition is generated through comparison with cells with a complete null mutation of MOZ. The absence of a functional Moz gene leads to senescence in 7-14 days at 3% oxygen.
Cells are plated in triplicate at 2,040 cells/cm^2 in the presence of a test compound. Compounds are tested at 500 nM, 1 μM, 2 μM, 5 μM, 10 μM and 20 μM. Control compounds include those that have a similar structure but show no activity in biochemical assays. […] RT-qPCR is used to assay the levels of MOZ target genes Ink4a, ink4b, Arf, Cdc6, Cdca8, Cdca2, E2f2, Ezh2, Skp2 and Melk.

For assay [3], the system named is INK4a and ARF null cells. Put plainly: Bioassay 1 repeated in INK4a and ARF null cells. Format: cell-based. The conditions noted are these: 1 μM, 2 μM, 5 μM, 10 μM. Here is the method: Cells are plated in triplicate cultures at 10,204 cells/cm^2 in the presence of a test compound. Compounds are tested at 500 nM, 1 μM, 2 μM, 5 μM, 10 μM and 20 μM. Control compounds include those that have a similar structure but show no activity in biochemical assays. After 48 hours, cells are passaged and counted, then replated at 10,204/cm^2. This procedure is continued for 336 hours. The total number of cells produced at each passage is then calculated and compared between treatment groups. […] Cells are analysed by flow cytometry for the absence of markers of apoptosis by staining with propidium iodide and FITC-conjugated annexin V. The level of DNA damaged is assessed by γH2A.X staining, a marker of DNA strand breaks.
The mechanism of action of these compounds, i.e. causing cell cycle arrest and senescence, was confirmed by repeating this assay using cells in which the INK4a/ARF pathways was inactivated by genetic deletion of a key exon common to both INK4a and the alternative splice product of the CDKN2a locus ARF.

Assay [4] deals with B cell lineage. The experiment in a line: Bioassay 10: effect on the B cell lineage in treated mice. Format: in vivo. The conditions noted are these: for numbers of pre B cells in the bone marrow: in words, daily I.P. injection; for immature B cells, percentage of WBC per femur / mature B cells, percentage of WBC per femur / pre-B cells, percentage of WBC per femur / pro-B cells, percentage of WBC per femur: wild type mice, 50 mg/kg I.P. daily. Here is the method: Mice were treated with compounds at the dosage of 50 mg/kg by I.P injection. Compounds are prepared for injection as a slurry in 50% PEG400/H2O. The effect on the B cell lineage is determined by fluorescent cytometry using characteristic cell surface markers expressed at different stages of B cell development.

Assay [5] deals with Wild type pre B cells. Put plainly: Bioassay 8: cell cycle analysis (DNA content and Ki67). Format: cell-based. The conditions noted are these: 1 μM. The procedure:
Pre B cells are isolated from bone marrow according to the criterion: cell surface expression of B220, CD19, but not cKit or IgM. Pre-B cells are cultured on OP9 cells with IL7 in the presence of compounds at various concentrations. The stages of the cell cycle in cultured pre-B cells with and without treatment is analysed by flow cytometry using a stain for DNA content combined with the cell cycle marker Ki67 to enumerate the proportion of cells in different phases of the cell cycle.

In assay [6] the test system is Wild type pre B cells. The experiment in a line: Bioassay 7: pre-B cell number dose response, wild type. Format: cell-based. The conditions noted are these: in words. The procedure: Pre B cells are isolated from bone marrow according to the criterion: cell surface expression of B220, CD19, but not cKit or IgM. Pre-B cells are cultured on OP9 cells with IL7 in the presence of compounds at concentrations from 0.01 μM to 20 μM in vitro for 4 days. Cell number is then enumerated and an IC50 is calculated.

Assay [7] concerns Eμ-Myc pre-leukemia pro-B cells. Put plainly: Bioassay 5: pro-B cell colony formation in methylcellulose, Eμ-Myc. Format: cell-based. Particulars: 1 μM, Eμ-Myc pre-leukemia pro-B cells. The procedure:
(§1) Pro-B cells are purified by positive selection using antiCD19-magnetic beads and fluorescence activated cell sorting using the criterion: cell surface expression of B220, CD19 and cKit but not IgM. After purification, 25,000 pro-B cells are seeded onto 3.5 cm culture dishes plate containing methylcellulose (MethoCult M3630, STEM CELL technologies) for 7 days. After 7 days culture, colonies in which there were more than 50 cells are counted. Subsequently, 190,000 pro-B cells are replated into methylcellulose for another 7 days of culture, followed by enumeration.

Assay [8] has as its system wild type pre-B cells. Put plainly: Bioassay 9: cell cycle analysis (DNA content and BrdU). Format: cell-based. Particulars: 1 μM. Here is the method: Pre B cells are isolated from bone marrow according to the criterion: cell surface expression of B220, CD19, but not cKit or IgM. Pre-B cells are cultured on OP9 cells with IL7 in the presence of compounds at various concentrations. The stages of the cell cycle in pre-B cells with and without treatment is analysed using flow cytometry to assay, using a stain for DNA content combined with BrdU to determine the proportion of cells in S phase.

Assay [9] deals with wild type pro-B cells. The experiment in a line: Bioassay 5: pro-B cell colony formation in methylcellulose, wild type. Format: cell-based. The procedure:
as §1

pIC50: −log10 of the molar value.

Chain of MOZ enzyme (Q92794 whole entry, species assumed): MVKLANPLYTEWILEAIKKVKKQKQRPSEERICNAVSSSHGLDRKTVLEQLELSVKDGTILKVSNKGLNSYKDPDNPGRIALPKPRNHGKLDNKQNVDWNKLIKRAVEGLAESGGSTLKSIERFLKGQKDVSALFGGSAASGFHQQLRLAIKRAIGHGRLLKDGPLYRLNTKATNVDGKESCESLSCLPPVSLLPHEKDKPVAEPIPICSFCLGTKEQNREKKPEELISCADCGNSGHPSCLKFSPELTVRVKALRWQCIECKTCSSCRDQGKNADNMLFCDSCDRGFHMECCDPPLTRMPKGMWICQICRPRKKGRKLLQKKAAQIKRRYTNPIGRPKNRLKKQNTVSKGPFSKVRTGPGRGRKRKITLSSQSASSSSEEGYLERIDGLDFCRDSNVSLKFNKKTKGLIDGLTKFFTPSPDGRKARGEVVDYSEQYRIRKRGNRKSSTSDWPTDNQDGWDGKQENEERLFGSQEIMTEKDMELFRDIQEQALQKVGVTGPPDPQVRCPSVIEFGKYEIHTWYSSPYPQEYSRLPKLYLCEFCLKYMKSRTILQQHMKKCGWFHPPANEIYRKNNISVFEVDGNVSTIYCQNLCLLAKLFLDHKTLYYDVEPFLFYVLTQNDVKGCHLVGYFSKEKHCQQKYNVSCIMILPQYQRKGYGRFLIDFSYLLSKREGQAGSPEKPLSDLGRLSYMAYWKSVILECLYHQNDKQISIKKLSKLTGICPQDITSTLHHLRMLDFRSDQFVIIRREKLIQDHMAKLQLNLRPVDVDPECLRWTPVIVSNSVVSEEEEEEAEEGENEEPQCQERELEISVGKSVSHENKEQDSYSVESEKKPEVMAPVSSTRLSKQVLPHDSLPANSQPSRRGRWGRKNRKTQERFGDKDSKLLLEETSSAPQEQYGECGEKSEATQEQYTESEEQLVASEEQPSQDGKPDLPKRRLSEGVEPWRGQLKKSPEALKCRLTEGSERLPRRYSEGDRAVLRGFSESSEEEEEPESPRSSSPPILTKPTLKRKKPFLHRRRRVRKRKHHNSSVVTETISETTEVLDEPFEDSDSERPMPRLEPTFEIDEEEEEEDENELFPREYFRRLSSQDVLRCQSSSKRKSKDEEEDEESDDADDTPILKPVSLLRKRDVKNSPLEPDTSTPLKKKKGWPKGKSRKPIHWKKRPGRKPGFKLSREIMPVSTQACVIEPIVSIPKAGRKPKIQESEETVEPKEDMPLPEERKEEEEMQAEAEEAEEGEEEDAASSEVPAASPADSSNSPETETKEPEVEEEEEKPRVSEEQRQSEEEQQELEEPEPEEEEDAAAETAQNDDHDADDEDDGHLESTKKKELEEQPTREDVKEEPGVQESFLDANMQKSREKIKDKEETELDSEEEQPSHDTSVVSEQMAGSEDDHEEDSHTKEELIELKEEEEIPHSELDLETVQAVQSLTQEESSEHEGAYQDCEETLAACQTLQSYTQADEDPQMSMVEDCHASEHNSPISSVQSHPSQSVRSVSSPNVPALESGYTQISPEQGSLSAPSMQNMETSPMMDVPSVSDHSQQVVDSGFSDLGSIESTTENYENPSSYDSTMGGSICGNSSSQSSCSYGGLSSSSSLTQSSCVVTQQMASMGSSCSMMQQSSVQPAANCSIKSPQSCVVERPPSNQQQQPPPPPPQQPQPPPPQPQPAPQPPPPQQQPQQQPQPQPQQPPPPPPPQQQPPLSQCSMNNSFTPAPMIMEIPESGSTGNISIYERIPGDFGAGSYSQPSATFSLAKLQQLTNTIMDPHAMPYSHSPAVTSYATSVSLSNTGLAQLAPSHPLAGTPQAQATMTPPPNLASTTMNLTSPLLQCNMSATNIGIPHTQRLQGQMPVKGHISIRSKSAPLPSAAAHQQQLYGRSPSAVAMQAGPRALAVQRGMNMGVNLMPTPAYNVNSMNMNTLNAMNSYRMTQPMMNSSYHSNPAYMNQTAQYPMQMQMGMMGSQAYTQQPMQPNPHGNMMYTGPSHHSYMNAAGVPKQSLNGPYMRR

For the molecule `O=C(NNS(=O)(=O)c1ccccc1)c1cncc(-c2ccccc2)c1` [Compound 109], in assay [1], the pIC50 is 4.67. In turn, `COc1ccccc1-c1cccc(C(=O)NNS(=O)(=O)c2ccccc2)c1` [Compound 27] gave a pIC50 in assay [1] of 4.95. On the same count and under the same terms, the same measure for `O=C(NNS(=O)(=O)c1ccccc1)c1cccc(-c2ccsc2)c1` [Compound 8]: 6.79; for `Cc1cc(-c2ccccc2)c(F)c(C(=O)NNS(=O)(=O)c2ccccc2)c1F` [Compound 154]: 8.00. In turn, `O=C(NNS(=O)(=O)c1ccccc1)c1cc(-c2ccc(F)cc2)ccc1F` [Compound 133] had a pIC50 in assay [1] of 6.08. `Cc1cc(-c2ncccn2)cc(C(=O)NNS(=O)(=O)c2ccccc2)c1F` [Compound 53]: in assay [2], the “CDC6 mRNA % control” value turned out to be 62.8%.

The molecule `Cc1cc(-n2cccn2)c(F)c(C(=O)NNS(=O)(=O)c2ccccc2)c1F` [Compound 155] gave a negative-log IC50 (pIC50) in [1] of 7.15. On the same count and under the same terms, the same measure for `COc1cccc(-c2cccc(C(=O)NNS(=O)(=O)c3ccccc3)c2)c1` [Compound 28]: 5.49.

Turning to `O=C(NNS(=O)(=O)c1ccccc1)c1cccc(-c2ccccc2F)c1` [Compound 29], in assay [1], the negative logarithm of the IC50 (pIC50) was 6.26.

In turn, `O=C(NNS(=O)(=O)c1ccccc1F)c1cccc(OCC2CC2)c1` [Compound 90] had a pIC50 in assay [1] of 6.94. Same read-out and setting: the same measure for `Cc1cccc(C(=O)NNS(=O)(=O)c2ccc3ccccc3c2)c1` [Compound 148]: 5.75. Same read-out and setting: the same measure for `Cc1cccc(C(=O)NNS(=O)(=O)c2ccc3ccccc3c2)c1F` [Compound 4]: 6.71; for `O=C(NNS(=O)(=O)c1ccccc1)c1cccc(-c2ccc(F)cc2)c1` [Compound 25]: 5.42; for `O=C(NNS(=O)(=O)c1ccccc1)c1ccnc(-c2ccccc2)c1` [Compound 106]: 4.72.

As for `COc1ccc(-c2cccc(C(=O)NNS(=O)(=O)c3ccccc3)c2)cc1` [Compound 26], in [1], the pIC50 is 4.40. Same read-out and setting: to `O=C(NNS(=O)(=O)c1ccccc1)c1cccc(-c2ccccc2)c1` [Compound 2] belongs 6.54; to `O=C(NNS(=O)(=O)c1ccccc1)c1cc(-c2ccccc2)cc(Cl)c1F` [Compound 35], 7.09. Same read-out and setting: to `O=C(NNS(=O)(=O)c1ccccc1)c1cccc(-c2cccnc2)c1` [Compound 98] belongs 4.88. For `O=C(NNS(=O)(=O)c1ccccc1F)c1cc(F)cc(-n2cccn2)c1` [Compound 64], in assay [2], the “CDC6 mRNA % control” value was 60.9%. On to `O=C(NNS(=O)(=O)c1ccccc1)c1cc(-c2cccs2)cc(Cl)c1F` [Compound 37], for which the pIC50 in assay [1] was 4.07. Besides, the “inhibition of cell proliferation” value in assay [3] was “no inhibition of cell proliferation was detected”. Take `O=C(NNS(=O)(=O)c1ccccc1)c1cccc(-c2ccccc2)c1F` [Compound 33]: the pIC50 in assay [1] is 6.57. The same measure, in the same setting: the same measure for `O=C(NNS(=O)(=O)c1ccccc1)c1cccc(-c2ccccc2Cl)c1` [Compound 34]: 5.10; for `O=C(NNS(=O)(=O)c1ccc2ccccc2c1)c1cccc(-c2ccccc2)c1` [Compound 1]: 5.53. In assay [1], `O=C(NNS(=O)(=O)c1ccccc1)c1cc(-c2ccccc2)ccc1F` [Compound 157] gave a pIC50 of 7.77. The same measure, in the same setting: the same measure for `O=C(NNS(=O)(=O)c1ccccc1)c1cccc(-c2ccccc2)n1` [Compound 116]: 4.78; for `O=C(NNS(=O)(=O)c1ccccc1)c1cccc(-c2ccc(Cl)cc2)c1` [Compound 32]: 4.59; for `O=C(NNS(=O)(=O)c1ccccc1)c1cccc(-c2cccc(F)c2)c1` [Compound 30]: 6.14. Turning to `N#Cc1cccc(-c2cccc(C(=O)NNS(=O)(=O)c3ccccc3)c2)c1` [Compound 31], the pIC50 in [1] is 5.07. As for `O=C(NNS(=O)(=O)c1ccccc1F)c1cc(F)cc(-c2ccccn2)c1` [Compound 46], in [4], the “numbers of pre B cells in the bone marrow” value is “markedly reduced numbers of pre B cells in the bone marrow”; the “immature B cells, percentage of WBC per femur” value is 3.33%; the “mature B cells, percentage of WBC per femur” value is 3.65%; the “pre-B cells, percentage of WBC per femur” value is given as 10.59%. Also, the “pro-B cells, percentage of WBC per femur” value in [4] was 1.14%. In the case of `O=C(NNS(=O)(=O)c1ccccc1)c1cccc(-c2cccs2)c1` [Compound 14], in [1], the negative logarithm of the IC50 (pIC50) was 6.33. On the same count and under the same terms, the same measure for `O=C(NNS(=O)(=O)c1ccccc1)c1cccc(-c2cc[nH]n2)c1` [Compound 7]: 5.13.

In [1], `O=C(NNS(=O)(=O)c1ccccc1)c1cccc(I)c1` [Compound 6] had a pIC50 of 5.69.

Molecule `O=S(=O)(NNCc1cccc(-c2cccc(Cl)c2)c1)c1ccccc1` [Compound 147] gave a pIC50 in assay [1] of 4.04. In the case of `O=C(NNS(=O)(=O)c1ccccc1)c1cc(-c2ccnnc2)ccc1F` [Compound 108], in assay [5] (cultured for 4 days), the “cells in G0” value was 10.8%, the “cells in G1” value worked out at 53.7%, the “cells in G2/M” value is 12.1% and the “cells in S” value is listed as 23.6%. Moreover, in assay [5] (cultured for 6 days), the “cells in G0” value stood at 8.6%, the “cells in G1” value came to 62.0%, the “cells in G2/M” value was found to be 8.5% and the “cells in S” value is recorded as 14.7%. Also, the “effect on pre B cell proliferation” value in [6] is given as “has no effect”. For the same molecule, in assay [7] (primary colonies), the colony number stood at 180.5. Also, the “colony number, secondary colony formation” value in assay [7] (secondary colony formation) came out at 78. In addition, in [8], the “cells in G0/G1 (BrdU)” value is on record as 44.2, the “cells in G2/M (BrdU)” value turned out to be 5.2 and the “cells in S (BrdU)” value turned out to be 46.2. Further, the colony number in assay [9] (1 μM, wild type pro-B cells, primary colonies) is reported as 245.125. In assay [9] (1 μM, wild type pro-B cells, secondary colony formation), the “colony number, secondary colony formation” value amounted to 77. Also, the colony formation result in assay [9] (in words, compared to vehicle) was “inactive”. Molecule `CC(C)c1cccc(C(=O)NNS(=O)(=O)c2ccc3ccccc3c2)c1` [Compound 3] had a pIC50 in assay [1] of 5.11. Turning to `CCOc1cc(C)cc(C(=O)NNS(=O)(=O)c2ccccc2F)c1` [Compound 137], the “CDC6 mRNA % control” value in assay [2] stood at 67.5%. Moreover, in [4], the “numbers of pre B cells in the bone marrow” value is listed as “markedly reduced numbers of pre B cells in the bone marrow”; the “immature B cells, percentage of WBC per femur” value is given as 3.92%; the “mature B cells, percentage of WBC per femur” value turned out to be 3.16%; the “pre-B cells, percentage of WBC per femur” value was 12.71%. The “pro-B cells, percentage of WBC per femur” value in [4] is 1.01%.
